Results reported in patent US9499823B2, “Constructs expressing chimeric receptors and use thereof for the controlled activation of defence response to pathogens in plants” (priority 2009, dated 2016).
Where no end group is shown, it is not given here.

Tests used:
[1] = tested on: RetOx, CYP81F2 and PAD3 transcripts; assay: Elicitor-induced accumulation of Ret-Ox, CYP81F2 and PAD3 transcripts, semi-quantitative PCR; format: cell-based, Arabidopsis thaliana; conditions: flg22 1 μM, 30 minutes
Procedure: B) Elicitor induced accumulation of Ret-Ox, CYP81F2 and PAD3 transcripts analysed by semi-quantitative PCR, using the UBQ5 gene for normalization. Leaves were incubated with water, flg22 (1 μM), elfl8 (10 μM) or a generic peptide (10 μM) for 30 minutes. The experiment was repeated three times with similar results. The same experiment was performed in a second independent transgenic line expressing eJMC with similar results.
3,3′-diaminobenzidine (DAB) staining, callose deposition and gene resistance analysis were assayed as described (Galletti et al., 2008). For measuring active oxygen species released by tobacco agroinfiltrated plants after elicitor treatment, the authors used a modified luminol-dependent assay (Gomez et al., 1999). Slices, corresponding to approximately 30 mg fresh weight, were transferred to assay tubes containing 1 μM flg22 or 10 μM elfl8 in aqueous solution supplied with 40 μM luminol (SIGMA). Chemo-luminescence was measured in a liquid scintillation counter (LS-6500, Beckman) after 5 and 15 min upon addition of elicitors.
Fluorescent eJMC and FLS2 were also stably expressed in transgenic Arabidopsis ecotype Wassilewskija (Ws-0), which carries EFR but lacks a flg22 perception system (Gomez-Gomez et al., 1999, Bauer et al., 2001). Transformed T1 plants expressing the proteins, named eJMC plants and FLS2 plants, respectively, were selected by confocal microscopy analysis of adult rosette leaves. […] Fluorescence was detected only in adult rosette leaves, likely due to a low expression level of the receptor at the different developmental stages.

[2] = tested on: agroinfiltrated leaves of N. tabacum ecotype SR1; assay: Receptor internalization in agroinfiltrated tobacco leaves; format: cell-based, Nicotiana tabacum; conditions: 10 μM flg22, 30 min
Procedure: E) Relative variation of fluorescence in agroinfiltrated tobacco leaves expressing EFR, FLS2, eJMC and TMC and treated with 10 μM elfl8 or 10 μM flg22 for 30 min.
(§1) The GFP-dependent fluorescence was monitored from 2 to 4 days post infection in cells of the lower epidermis. Pieces of leaf were randomly cut from the infected area and mounted in water or supplemented with elicitors for microscopic observations. Flg22 and elfl8 were used at 10 μM while oligosaccharides were used at 100 μg/mL. Materials were analyzed using a Leica DM IRE epifluorescence microscope equipped with a digital cooled camera (DFC350FX R2; Leica). GFP fluorescence was excited with a 488-nm laser line, and emitted fluorescence was collected at 543-nm. The Leica Confocal Software and Adobe Photoshop 5.0 were used for post-acquisition image processing. All samples were imaged with the 40× or 100× oil objectives. Pictures were taken in Kahlman frame giving an average of 16 scans for the dynamics of internalization and 4 scans for the cellular localizations.
The behaviour of TMC and eJMC upon treatment with flg22 and elfl8 was also analysed in agroinfiltrated leaves of N. tabacum ecotype SR1 and compared to that of EFR and FLS2. […] Instead, in the eJMC expressing plants fluorescence decreased within 10-30 min after stimulation with flg22, at an extent similar to that observed in Arabidopsis, i.e. by 25% and 35% after 20 min and 30 min, respectively (FIG. 3E).

[3] = tested on: agroinfiltrated Arabidopsis thaliana Col-0 leaves; assay: Receptor internalization: decrease of GFP fluorescence by confocal microscopy in agroinfiltrated Arabidopsis Col-0 leaves; format: cell-based; conditions: 10 μM flg22, 30 min
Procedure: PCR templates are shown in bold. Primers listed in Table 1 are shown in capital letters. Stable transgenic lines were generated using the standard A. tumefaciens-mediated gene transfer procedure of inflorescence infiltration (Bent et al., 2006). Independent transformed plant pools were kept separate for the selection of independent transgenic lines based on their phosphinotrycin resistance and leaves GFP fluorescence. Tobacco and Arabidopsis transient transgenic lines were prepared by infiltrating with Agrobacterium tumefaciens carrying the individual constructs, as described by Reca (2008).
as §1, with “localizations. […]” for “localizations.”
The dynamics of fluorescence localization upon treatment with elicitors was then studied. Whereas endocytosis of surface receptors upon ligand binding often occurs in animals (Warren and Landgraf 2006), this mechanism in plants has emerged only recently (Geldner & Robatzek 2008) and, so far, FLS2 is the only receptor involved in plant immunity shown to undergo endocytosis upon the specific stimulation with flg22 (Robatzek et al., 2006). The authors tested the effect of flg22 and elf 18, i.e. the peptides specifically recognized by FLS2 and EFR respectively, and oligogalacturonides with a degree of polymerization between 10 and 16 (OGs), which act as general elicitors of defense responses in several plants. Explants from agroinfiltrated Arabidopsis leaves at 2 dpi were treated with elicitors and then subjected to confocal microscopy analysis. […] Instead, when eJMC-expressing explants were stimulated with flg22, the fluorescent signal decreased by 25% and 40% after 20 min and 30 min, respectively (FIG. 3B).
The first chimeric receptor, indicated as WEG, comprised the WAK1 ectodomain fused to the TM-iJM-kinase portion of EFR and was designed to test the ability of the WAK1 ectodomain to perceive OGs and transmit the signal inside the cell. […] Both WEG and EWAK as well as WAK1 were fused to GFP and used in agroinfiltration experiments (FIG. 5A). […] Western-blot analysis using GFP-specific antibodies on proteins from IWF and microsomal fractions prepared from infiltrated leaves confirmed the plasma membrane localization of both fluorescent chimeras (FIG. 5D). The effect of OGs on the internalization of WEG was followed in agroinfiltrated Arabidopsis Col-0 leaves. […] This might be due to the inability of WEG to uncouple its ectodomain from pectins, since it is known that WAK1 strongly binds to pectin and only denaturing treatments allow its separation from cell wall (He et al., 1996). On the other hand, affinity studies have shown that WAK1 interact with cell wall pectins that are in a Ca^2+-induced conformation (i.e. the structures called “egg boxes”) and that the interaction is disrupted by adding a chelating agent such as EDTA (Decreux et al., 2005; Cabrera et al., 2008). The authors therefore tested whether OG-induced internalization of WEG occurred in the presence of 5 mM EDTA. WEG-expressing agroinfiltrated leaves were syringe-infiltrated with OGs and after 30 min the tissues were mounted in the presence of EDTA for confocal microscopy analysis. […]

[4] = tested on: ethylene biosynthesis in tobacco leaves; assay: Induction of ethylene biosynthesis in agroinfiltrated tobacco leaf explants; format: cell-based, Nicotiana tabacum; conditions: flg22, 2 h; compared with EFR-expressing explants as negative controls
Procedure: F) Induction of ethylene biosynthesis in agroinfiltrated tobacco leaves expressing the fluorescent EFR, FLS2, TMC, eJMC and eJMC^Y859A. NC: negative control, represented by agroinfiltrated leaf tissues expressing fluorescent EFR or FLS2 and elicited with flg22 or elfl8, respectively. Results are averages±standard error (n=3).
Excised infiltrated leaf sectors were stimulated for 2 h with water or the elicitor ([…] and 100 μg/ml for OGs). Values are means±s.e.m. (N=3).
E) Induction of ethylene biosynthesis in agroinfiltrated tobacco leaves expressing EFR, WAK1, WEG and EWAK. Each construct was stimulated for 2 h with elfl8 (10 μM) or OGs (100 μg/mL). NC: negative control, represented by agroinfiltrated leaf tissue expressing EFR or FLS2 when OGs or elfl8, respectively, were used for elicitation. Error bars indicate the standard error of three independent replicates.
(A) Induction of ethylene biosynthesis in agroinfiltrated tobacco explants expressing EFR, WAK1, WEG and EWAK. […] Agroinfiltrated leaf tissues expressing EFR or WEG and elicited with OGs or elfl8 respectively, represented our negative control. Values are means±s.e.m. (N=3). (B) Elicitor-induced gene expression in untransformed Col-0 and Col-0 efr plants, and in transgenic Arabidopsis Col-0 efr plants stably expressing WEG. Accumulation of At3g22270 and At4g37640 transcripts was analysed by semi-quantitative PCR, using the UBQ5 gene for normalization. Adult leaves were syringe-infiltrated with water, OGs (25 μg/ml) or elfl8 (10 μM) for 3 h. The experiment was repeated three times with similar results. The same experiment was performed in a second independent transgenic line expressing WEG with similar results.
Approximately 150 mg of tobacco agroinfiltrated leaf were cut in small slices and extensively washed with sterile distilled water. The explants were placed in sealed 10 mL flasks containing 2 mL of sterile water alone or supplemented with 100 mg L^−1 OGs, or 1 μM flg22 or 10 μM elfl8. 450 μl headspace samples were withdrawn from the vial after 2 h treatment and analyzed by gas chromatography-mass spectrometry using an Agilent 6850A gas chromatograph coupled to a 5973N quadrupole mass selective detector (Agilent Technologies, Palo Alto, Calif., USA). Chromatographic separations were carried out an HP Plot-Q fused-silica capillary column (30 m×0.32 mm i.d.) coated with polystyrene-divinylbenzene (film thickness 0.20 μm) as stationary phase. Injection mode: splitless at a temperature of 220° C. The initial temperature of the oven was held at 50° C. for 8 min then ramped to 220° C. at a rate of 15° C./min and held for 5 min. Helium was used as carrier gas at a constant flow of 1.0 ml/min. Mass spectra were collected both in full scan and in SIM mode monitoring the ions m/z m/z 26, m/z 27 and m/z 28 (ionization energy 70 eV; ion source 280° C.; ion source vacuum 10^−5 Torr).

Row | Substance | expression of RetOx, CYP81F2 and PAD3 in untransformed Ws-0 plants [1] | internalization after stimulation with flg22 [2] | decrease in fluorescence upon treatment with flg22 [3] | ethylene release induced by flg22 [4]
1 | QRLSTGSRINSAKDDAAGLQIA [flg22] | not in the untransformed plants |  |  | 
2 | TMC: chimera (Ala817FLS2-Leu661EFR): FLS2 LRR, eJM and N-terminal half of TM fused to C-terminal half of EFR TM, iJM and kinase |  | Neither FLS2 nor TMC underwent internalization | did not show any decrease in fluorescence | only a weak response
